“Also recorded” adds a separate entry of the source.
How the values were obtained:
[1] = system: MDM2, p53, and p21 protein levels; test: Western immunoblotting of MDM2, p53, p21 in TP53 wild-type Ewing sarcoma cell lines; format: cell-based
Experimental: (§1) Whole-cell lysates were extracted in cell lysis buffer (Cell Signaling) supplemented with EDTA-free protease inhibitors and PhosSTOP™ phosphatase inhibitors (Roche). Western immunoblotting was performed using standard techniques. Primary antibodies used included anti-MDM2 (ab178938; Abcam), anti-MDM2 (86934; Cell Signaling), anti-MDM4 (A300-287A; Bethyl Laboratories), anti-p53 (2527S; Cell Signaling), anti-p21 (2946S; Cell Signaling), anti-Vinculin (18058; Abcam), anti-Wip1 (A300-664A; Bethyl Laboratories), anti-pSer15-p53 (9284; Cell Signaling), anti-USP7 (A300-033A; Bethyl Laboratories), and anti-Tubulin (cp06; CalBiochem).

[2] = system: TC32 xenograft tumor tissues; test: Pharmacodynamics study in TC32 xenograft tumor tissue (Western blot, quantitative PCR); format: in vivo, mice; settings: three doses 30 mg/kg IV q.o.d., 8 h after last dose
Experimental: as §1
RNA was extracted from cells with the RNeasy® kit and on-column DNA digestion (Qiagen). cDNA was prepared using M-MLV reverse transcription (ThermoFisher Scientific). TaqMan™ Gene Expression Master Mix (Applied Biosystems) was used per the manufacturer's protocol. TaqMan™ probes included RPL13A (Hs04194366_g1; ThermoFisher Scientific), CDKNIA (Hs00355782_m1; Thermo Fisher Scientific), and MDM2 (Hs01066930_m1; ThermoFisher Scientific). Data were collected in triplicate and analyzed using the ΔΔCT method.
For pharmacodynamics studies, tumor xenografts were established in six nude female mice by implanting three million TC32 cells or PDX tumor fragments into the right flank. Animals were randomized to either ATSP-7041 (n=3) or vehicle treatment (n=3). […]

TC32 xenograft tumors = test: TC32 Ewing sarcoma xenograft anti-tumor efficacy study; format: in vivo, mice; settings: 30 mg/kg IV every other day for 20 d (10 doses) vs vehicle
Experimental: j. Ewing Sarcoma Xenograft Studies
For anti-tumor efficacy studies, tumor xenografts were established in 15 nude female mice by implanting three million TC32 cells into the right flank. Animals were randomized to either 20 d of treatment with 30 mg/kg q.o.d. IV ATSP-7041 (n=8) or vehicle (n=7) for a total of 10 doses. Treatment was started when tumors reached 100-200 mm3. Tumor volumes were measured with calipers twice a week. For PDX studies, tumor fragments were implanted into the right flank of nude female mice by minor surgery. After tumor engraftment, studies were performed as described for TC32 xenograft studies.
For in vivo studies, ATSP-7041 was prepared using the following protocol: mPEG-DSPE (Nanocs) was dissolved in chloroform and dried by a rotary evaporator. ATSP-7041 was dissolved in 1 M NaOH and diluted 100-fold in 10 mM histidine-buffered saline to a final concentration of 3 mg/ml. This mixture was added to the dried lipid film to a final mPEG-DSPE concentration of 50 mg/ml and final pH 7. The film was rehydrated by brief sonication and heating in a 50° C. water bath. The mixture was then subjected to five freeze-thaw cycles in liquid nitrogen and 40° C. water, respectively, and the solution passed 10 times through an Avanti Mini-Extruder Set (Avanti Polar Lipids) equipped with a 800-nm filter (Whatman).

`CC(=O)N[C@@H](CC(C)C)C(=O)N[C@H](C(=O)N[C@@H](Cc1ccccc1)C(=O)N[C@]1(C)CCCCCCC=CCCC[C@@](C)(C(=O)N[C@@H](CO)C(=O)N[C@@H](C)C(=O)N[C@@H](C)C(N)=O)NC(=O)[C@H](CC2CCC2)NC(=O)[C@H](CCC(N)=O)NC(=O)[C@H](C)NC(=O)[C@H](Cc2c[nH]c3ccccc23)NC(=O)[C@H](Cc2ccc(O)cc2)NC(=O)[C@H](CCC(=O)O)NC1=O)[C@@H](C)O` [ATSP-7041, Ac-Leu17-Thr-Phe-cyclo(R8-Glu-Tyr-Trp-Ala-Gln-Cba-S5)-Ser-Ala-Ala30-NH2] was tested, and the “p53 protein levels, combination of ATSP-7041 and doxorubicin” value ([1]; TC32 cells, 2 d) was “greatly increased p53 protein levels”, the “p53 protein levels, combination of ATSP-7041 and etoposide” value ([1]; TC32 cells, 2 d) was “greatly increased p53 protein levels” and the “p53 protein levels, combination of ATSP-7041 and vincristine” value ([1]; TC32 cells, 2 d) was “greatly increased p53 protein levels”. For the same compound, the “MDM2, p53, and p21 protein levels” value ([1]; TP53 wild-type Ewing sarcoma cell lines, Western blot) was “increased protein levels of MDM2, p53, and p21; also recorded: Concentration-dependent increases”, the “MDM2, p53, and p21 protein levels in tumor tissue” value [2] was “increase of MDM2, p53, and p21 protein levels; also recorded: increase in MDM2, p53, and p21 protein levels” and the “MDM2 and p21 mRNA levels in tumor tissue” value ([2]; quantitative PCR) was “increase of MDM2 mRNA levels; also recorded: increase of p21 mRNA levels”. For the same compound, the “tumor growth (normalized tumor volume)” value (TC32 xenograft tumors) was “significantly suppressed tumor growth”.

Reference: patent publication US12480163B2, “Compositions and methods for identification assessment, prevention, and treatment of Ewing sarcoma using TP53 dependency biomarkers and modulators” (Dana-Farber Cancer Institute, Inc., priority 2018, dated 2025)
